The values below come from patent US4220644A, “7-Acylamino-3-(substituted tetrazolyl thiomethyl) cephalosporins” (SmithKline Corporation, priority 1976, dated 1980).

In brackets after ≈: the same amount, converted by molar mass. Where two headings read alike, the source gives them in different places. A value given as a limit tells only on which side of the number the result lay.

The test system of one assay is S. aureus SK 23390. Put plainly: MIC in vitro (Table 1), S. aureus SK 23390. It counts as cell-based. Conditions: Staphylococcus aureus. The text has this: (§1) Compound names corresponding to numbers are given in the experimental section. For comparative purposes, data for cephamandole, which is 7-mandelamido-3-(1-methyltetrazol-5-ylthiomethyl)-3-cephem-4-carboxylic acid, is also given in Tables 1 and 2.

The test system of the next assay is Salmonella ATCC 12176. The assay is described as follows: MIC in vitro (Table 1), Salmonella ATCC 12176. It counts as cell-based. An excerpt:
(§2) The compounds of Formula I have antibacterial activity against both Gram-positive and Gram-negative organisms. […] Compound names corresponding to numbers are given in the experimental section. For comparative purposes, data for cephamandole, which is 7-mandelamido-3-(1-methyltetrazol-5-ylthiomethyl)-3-cephem-4-carboxylic acid, is also given in Tables 1 and 2.

The test system of a further assay is Kleb. pneumo. SK 1200. The assay is described as follows: MIC in vitro (Table 1), Kleb. pneumo. SK 1200. It counts as cell-based.
Source text: as §1

The subject of assay [1] is Entero. aerog. ATCC 13048. Put plainly: MIC in vitro (Table 1), Entero. aerog. ATCC 13048. It counts as cell-based.
Source text: as §1

For another assay, the system named is E. coli HH 33779. Put plainly: MIC in vitro (Table 1), E. coli HH 33779. The class given is cell-based. To be noted: Escherichia coli.
Source text: as §1

For a further assay, the system named is Serra. Marc. ATCC 13880. Put plainly: MIC in vitro (Table 1), Serra. Marc. ATCC 13880. It counts as cell-based.
Source text: as §1

For the next assay, the system named is E. coli SK 12140. The assay is described as follows: MIC in vitro (Table 1), E. coli SK 12140. To be noted: Escherichia coli, SK12140, in vitro. The class given is cell-based.
Source text: as §1

The test system of a further assay is Strep. Faecalis HH 34358. The assay is described as follows: MIC in vitro (Table 1), Strep. Faecalis HH 34358. To be noted: Enterococcus faecalis, in vitro, Strep. Faecalis HH 34358; read-out: MIC. The class given is cell-based.
Source text: as §1

In a further assay the test system is Proteus morgani 179. The assay is described as follows: MIC in vitro (Table 1), Proteus morgani 179. It counts as cell-based.
Source text: as §1

The next assay has as its system E. coli 12140. The assay is described as follows: In vivo mouse protection (Table 2), E. coli 12140.
Source text: as §1

The next assay relates to Kleb. pneumo. 4200. The assay is described as follows: In vivo mouse protection (Table 2), Kleb. pneumo. 4200.
Source text: as §1

Another assay relates to S. aureus HH 127. The assay is described as follows: MIC in vitro (Table 1), S. aureus HH 127. The class given is cell-based. Conditions: Staphylococcus aureus.
Source text: as §1

The next assay relates to Entero. cloacae HH 31254. The assay is described as follows: MIC in vitro (Table 1), Entero. cloacae HH 31254. The class given is cell-based. Conditions: Enterobacter cloacae.
Source text: as §1

Another assay has as its system Kleb. pneumo. SK 4200. The assay is described as follows: MIC in vitro (Table 1), Kleb. pneumo. SK 4200. It counts as cell-based.
Source text: as §1

The next assay deals with Shigella HH 117. Put plainly: MIC in vitro (Table 1), Shigella HH 117. It counts as cell-based.
Source text: as §2

The next assay deals with Pseudo. sp. HH 63. The assay is described as follows: MIC in vitro (Table 1), Pseudo. sp. HH 63. The class given is cell-based. Conditions: in vitro, Pseudo. sp. HH 63; read-out: MIC.
Source text: as §2

The next assay concerns S. villaluz. Put plainly: MIC in vitro (Table 1), S. villaluz. The class given is cell-based. Conditions: read-out: MIC.
Source text: as §2

The mark [2] stands for this setting: Salmonella, ATCC12176, in vitro, read-out: MIC.
Setting [3] is: in vitro, Entero. aerog. ATCC 13048, read-out: MIC.
The mark [4] stands for this setting: HH33779, in vitro, E. coli HH 33779, read-out: MIC.
The mark [5] stands for this setting: in vitro, Serra. Marc. ATCC 13880, read-out: MIC.
The mark [6] stands for this setting: Escherichia coli, 12140, po, E. coli 12140, p.o.
Setting [7] is: Escherichia coli, 12140, sc, E. coli 12140, s.c.
[8] abbreviates: HH31254, in vitro, Entero. cloacae HH 31254, read-out: MIC.
Setting [9] is: in vitro, Kleb. pneumo. SK 4200, read-out: MIC.
The mark [10] stands for this setting: Shigella, HH117, in vitro, read-out: MIC.
The mark [11] stands for this setting: HH127, in vitro, S. aureus HH 127, read-out: MIC.

For orientation: MIC means the lowest concentration that inhibits growth of the organism. What is called ED50 is the dose that gives a 50% effect, or the effect in half of the subjects. Low readings indicate greater potency, high ones weaker potency. For `O=C(O)Cn1nnnc1SCC1=C(C(=O)O)N2C(=O)C(NC(=O)[C@H](O)c3ccccc3)[C@H]2SC1` (stereo partly drawn) [I, 7-D-Mandelamido-3-(1-carboxymethyltetrazol-5-ylthiomethyl)-3-cephem-4-carboxylic acid], the MIC with S. aureus SK 23390 (SK23390) stood at 1.6 µg/mL (≈ 3.16 µM); in the assay on S. aureus SK 23390 (SK23390, in vitro, S. aureus SK 23390, read-out: MIC) it was 3.1 µg/mL (≈ 6.12 µM); in the assay on Salmonella ATCC 12176 (setting [2]), 1.6 µg/mL (≈ 3.16 µM); in the assay on Salmonella ATCC 12176 (in vitro) it was 0.8 µg/mL (≈ 1.58 µM); with Kleb. pneumo. SK 1200, 1.6 µg/mL (≈ 3.16 µM); in the assay on Kleb. pneumo. SK 1200 (read-out: MIC), 0.8 µg/mL (≈ 1.58 µM). Further, the MIC in assay [1] stood at 12.5 µg/mL (≈ 24.7 µM); in assay [1] (setting [3]), 6.3 µg/mL (≈ 12.4 µM); in the assay with E. coli HH 33779 (HH33779), 1.6 µg/mL (≈ 3.16 µM); in the assay on E. coli HH 33779 (setting [4]) it was 6.3 µg/mL (≈ 12.4 µM); in the assay on Serra. Marc. ATCC 13880, 25 µg/mL (≈ 49.4 µM); in the assay with Serra. Marc. ATCC 13880 (setting [5]) it was 100 µg/mL (≈ 197 µM). Also, the MIC was determined as 1.6 µg/mL (≈ 3.16 µM) in the assay with E. coli SK 12140; 100 µg/mL (≈ 197 µM) with Strep. Faecalis HH 34358; 3.1 µg/mL (≈ 6.12 µM) in the assay on Proteus morgani 179; 6.3 µg/mL (≈ 12.4 µM) in the assay on S. aureus HH 127 (HH127); 0.8 µg/mL (≈ 1.58 µM) in the assay with Entero. cloacae HH 31254 (setting [8]); 1.6 µg/mL (≈ 3.16 µM) in the assay on Kleb. pneumo. SK 4200. Also, the minimum inhibitory concentration (MIC) in the assay on Kleb. pneumo. SK 4200 (setting [9]) is 0.8 µg/mL (≈ 1.58 µM); in the assay with Shigella HH 117 (setting [10]), 1.6 µg/mL (≈ 3.16 µM); against Shigella HH 117 (in vitro), 0.8 µg/mL (≈ 1.58 µM); in the assay with Pseudo. sp. HH 63, above 200 µg/mL. Further, the 50% effective dose (ED50) in the assay with E. coli 12140 (setting [6]) was determined as 50 mg/kg; in the assay with E. coli 12140 (setting [7]) it was 1.56 mg/kg; in the assay with Kleb. pneumo. 4200 (po, Kleb. pneumo. 4200, p.o.), 25 mg/kg.

As to `NC(=O)Cn1nnnc1SCC1=C(C(=O)O)N2C(=O)C(NC(=O)CSC(F)(F)F)[C@H]2SC1` (stereo partly shown) [XVII, 7-Trifluoromethylmercaptoacetamido-3-(1-carbamoylmethyltetrazol-5-ylthiomethyl)-3-cephem-4-carboxylic acid], the minimal inhibitory concentration (MIC) against S. aureus SK 23390 (SK23390) was determined as 0.4 µg/mL (≈ 0.779 µM); with Salmonella ATCC 12176 (setting [2]), 0.4 µg/mL (≈ 0.779 µM); with Kleb. pneumo. SK 1200, 0.4 µg/mL (≈ 0.779 µM); in assay [1] (setting [3]), 1.6 µg/mL (≈ 3.12 µM); in the assay on E. coli HH 33779 (setting [4]), 3.1 µg/mL (≈ 6.04 µM); with Serra. Marc. ATCC 13880 (setting [5]) it was 100 µg/mL (≈ 195 µM). The minimum inhibitory concentration (MIC) in the assay on E. coli SK 12140 turned out to be 0.4 µg/mL (≈ 0.779 µM); in the assay with Strep. Faecalis HH 34358, 25 µg/mL (≈ 48.7 µM); with Proteus morgani 179 (read-out: MIC), 200 µg/mL (≈ 389 µM); with S. villaluz it was 12.5 µg/mL (≈ 24.3 µM); in the assay with S. aureus HH 127 (setting [11]), 0.4 µg/mL (≈ 0.779 µM); in the assay on Entero. cloacae HH 31254 (setting [8]), 0.8 µg/mL (≈ 1.56 µM). For the same compound, the MIC was found to be 0.8 µg/mL (≈ 1.56 µM) in the assay with Kleb. pneumo. SK 4200 (setting [9]) and 0.2 µg/mL (≈ 0.389 µM) with Shigella HH 117 (setting [10]). Besides, the 50% effective dose (ED50) with E. coli 12140 (setting [6]) worked out at 6.25 mg/kg; in the assay on E. coli 12140 (setting [7]) it was 0.28 mg/kg; in the assay on Kleb. pneumo. 4200 (po, Kleb. pneumo. 4200, p.o.), 15.5 mg/kg; in the assay with Kleb. pneumo. 4200 (sc, Kleb. pneumo. 4200, s.c.), 0.78 mg/kg.

Turning to `O=C(O)CCn1nnnc1SCC1=C(C(=O)O)N2C(=O)C(NC(=O)CSC(F)(F)F)[C@H]2SC1` (stereo partly shown) [XV, 7-Trifluoromethylmercaptoacetamido-3-[1-(2-carboxyethyl)tetrazol-5-ylthiomethyl]-3-cephem-4-carboxylic acid], the minimal inhibitory concentration (MIC) in the assay with S. aureus SK 23390 (SK23390) turned out to be 0.8 µg/mL (≈ 1.51 µM); in the assay with Salmonella ATCC 12176 (setting [2]), 0.4 µg/mL (≈ 0.757 µM); with Kleb. pneumo. SK 1200, 0.4 µg/mL (≈ 0.757 µM); in [1] (setting [3]), 6.3 µg/mL (≈ 11.9 µM); in the assay with E. coli HH 33779 (setting [4]), 3.1 µg/mL (≈ 5.87 µM); with Serra. Marc. ATCC 13880 (setting [5]), 200 µg/mL (≈ 378 µM). The MIC with E. coli SK 12140 (read-out: MIC) is 0.8 µg/mL (≈ 1.51 µM); with Strep. Faecalis HH 34358, 50 µg/mL (≈ 94.6 µM); in the assay on Proteus morgani 179 (read-out: MIC) it was above 200 µg/mL; with S. villaluz it was 25 µg/mL (≈ 47.3 µM); with S. aureus HH 127 (setting [11]), 1.6 µg/mL (≈ 3.03 µM); in the assay with Entero. cloacae HH 31254 (setting [8]) it was 0.8 µg/mL (≈ 1.51 µM). In addition, the minimum inhibitory concentration (MIC) in the assay on Kleb. pneumo. SK 4200 (setting [9]) and in the assay on Shigella HH 117 (setting [10]) was 0.8 µg/mL (≈ 1.51 µM) throughout. In addition, the ED50 is above 50 mg/kg in the assay with E. coli 12140 (setting [6]); 1.56 mg/kg with E. coli 12140 (setting [7]); 46 mg/kg with Kleb. pneumo. 4200 (po, Kleb. pneumo. 4200, p.o.); 1.12 mg/kg in the assay on Kleb. pneumo. 4200 (sc, Kleb. pneumo. 4200, s.c.).

As to `CN(C)C(=O)Cn1nnnc1SCC1=C(C(=O)O)N2C(=O)C(NC(=O)[C@H](N)c3ccc(O)cc3)C2SC1` (stereo partly drawn) [IX, 7-(D-α-Amino-4-hydroxyphenylacetamido)-3-(1-N,N-dimethylcarbamoylmethyltetrazol-5-ylthiomethyl)-3-cephem-4-carboxylic acid], the MIC turned out to be 6.3 µg/mL (≈ 11.5 µM) in the assay with S. aureus SK 23390 (SK23390); 3.1 µg/mL (≈ 5.65 µM) with Salmonella ATCC 12176 (setting [2]); 6.3 µg/mL (≈ 11.5 µM) against Kleb. pneumo. SK 1200; 12.5 µg/mL (≈ 22.8 µM) in [1]; 12.5 µg/mL (≈ 22.8 µM) in the assay with E. coli HH 33779 (setting [4]); 200 µg/mL (≈ 365 µM) with Serra. Marc. ATCC 13880 (setting [5]). Also, the minimal inhibitory concentration (MIC) in the assay on E. coli SK 12140 (read-out: MIC) was 12.5 µg/mL (≈ 22.8 µM); with Strep. Faecalis HH 34358 it was 25 µg/mL (≈ 45.6 µM); in the assay on Proteus morgani 179 (read-out: MIC), 100 µg/mL (≈ 182 µM); with S. aureus HH 127 (setting [11]) it was 12.5 µg/mL (≈ 22.8 µM); in the assay on Entero. cloacae HH 31254 (HH31254), 3.1 µg/mL (≈ 5.65 µM); against Kleb. pneumo. SK 4200 it was 6.3 µg/mL (≈ 11.5 µM). Moreover, the results for the MIC in the assay on Shigella HH 117 (setting [10]) and in the assay on Pseudo. sp. HH 63 were 6.3 µg/mL (≈ 11.5 µM) and above 200 µg/mL, respectively. In addition, the ED50 turned out to be 28.5 mg/kg in the assay on E. coli 12140 (setting [6]); 1.56 mg/kg in the assay with E. coli 12140 (setting [7]); 18 mg/kg in the assay on Kleb. pneumo. 4200 (po, Kleb. pneumo. 4200, p.o.); 3.7 mg/kg in the assay on Kleb. pneumo. 4200 (sc, Kleb. pneumo. 4200, s.c.).
